Consider four compounds from US20030144204A1, “Akt-based inducible survival switch” (Baylor College of Medicine, priority 2001, published 2003).

For experiment [1], the system named is endogenous Akt and iAkt. Description: Akt phosphorylation in Jurkat.iAkt cells after kinase inhibitor pretreatment. The format is cell-based, human. As to conditions: 30 min inhibitor pretreatment, then AP22783 30 min. The protocol:
Jurkat.iAkt cells were serum starved for 24 hours followed by 30 min pretreatment with PI3K inhibitors, wortmannin and LY294002, or MEK inhibitor, PD98059, as a control. After inhibitor pretreatment, AP22783 was added to the media for another 30 min to mobilize membrane recruitment of iAkt.

In experiment [2] the test system is NF-κB. Description: NF-κB/SEAP reporter assay in Jurkat-TAg cells. It is filed as cell-based, human. Particulars: R0318220 1 μM.
For experiment [3], the system named is Jurkat.iAkt cells. Description: Apoptosis by propidium iodide staining and flow cytometry (hypodiploid cells). The format is cell-based, human. Particulars: for etoposide-induced cell death: etoposide 0.3-100 μM, 12 hours. The protocol:
Jurkat.iAkt were serum starved for 24 hours followed by pre-treatment with AP22783 in 0, 2 or 10% FBS for 40 min. After incubation with apoptosis-inducing stimuli for the periods indicated, cells were harvested and washed twice in ice-cold PBS and fixed in 70% ethanol. Cells were stained in 50 μg/ml propidium iodide and 100 μg/mlRNase A for 30 min at 37° C., and hypodiploid cells were quantitated by flow cytometry using a Beckman-Coulter EPICS XL-MCL.
Jurkat.iAkt cells were given various apoptotic insults in the presence or absence of rapalogs. Initially, the protective effects of iAkt were studied on staurosporine (STS)-induced apoptosis. […] Following serum starvation for 24 hours, Jurkat.iAkt cells were treated with 0, 0.5, or 2.0 μM STS with or without AP22783 (400 nM) for 6 hours in the absence of serum. Cell death was monitored using propidium iodide (PI) staining and flow cytometry (FCM) by quantitation of subdiploid cells.
The effects of AP22783 treatment following PI3K inhibition of Jurkat.iAkt cell were studied.
Finally, the anti-apoptotic effects of iAkt on protection from direct DNA damaging agents were examined. The anti-tumor agent, etoposide (VP16), is widely used as a chemotherapeutic drug that works by inhibiting DNA topoisomerase II, which can induce apoptosis in a variety of cell types. […] Again, the experiments were carried out in two different culture conditions with low or high FBS levels.

The subject of experiment [4] is F3-ΔPH.Akt kinase. Description: Immunoprecipitation and in vitro Akt kinase assay (GSK3α/β crosstide). The format is biochemical. Particulars: Jurkat.iAkt serum starved 24 hours, treated 30 min, anti-HA immunoprecipitate. The method, then:
Jurkat.iAktb were serum starved for 24 hours followed by treatment with AP22783 or serum for 30 min. Cells were then lysed in a lysis buffer provided with the Akt Kinase Assay kit (Cell Signaling, Beverly, Mass.), and Fpk3-ΔPH.AKT-E was immunoprecipitated with polyclonal anti-HA antibody. Antibody-antigen complexes were washed three times in lysis buffer and once in kinase buffer. In vitro kinase assays for Akt were performed using a GSK3α/β “crosstide”. The extent of crosstide phosphorylation was determined by anti-GSKα/β immunoblotting according to the manufacturer's protocol.
To further measure the induction of Akt enzymatic activity, Jurkat.iAkt cells were serum starved for 24 hours and thereafter treated with AP22783 or serum for 30 min. Chimeric F3-ΔPH.Akt.-kinase was immunoprecipitated with the anti-HA antibody and Akt kinase activity was measured using an in vitro kinase assay that uses a GSK3α/β “crosstide” as a substrate. The level of phosphorylated GSK3 crosstides was determined by immunoblotting with phospho-specific antibody against GSK3-α21/β9.

In experiment [5] the test system is Akt (T308 or S473 site). In words: Western blot of Akt phosphorylation in transfected 293T cells. It is filed as cell-based, human. Particulars: M-FRB12 plus F3-ΔPH.Akt, serum starved 24 hours, as early as 30 min after drug addition. The protocol: 293T cells seeded in 6-well plates were transiently transfected with 2 μg of different expression constructs in 6 μl FuGENE6 (Boehringer-Mannheim, Indianapolis, Ind.) in Opti-MEM-I medium for 24 hours followed by serum starvation for an additional 24 hours. Cells were then treated with different agents and harvested at different time points. After washing (2×) in ice-cold PBS, cell pellets were lysed in RIPA buffer containing protease inhibitors (CytoSignal, Irvine, Calif.). Equal amounts of protein from each sample were separated on 10% SDS-PAGE gels and transferred to PVDF membrane (Amersham Pharmacia Biotech, Piscataway, N.J.). Phospho-specific antibodies against Akt (T308 or S473 site) (Cell Signaling, Beverly, Mass.) were used for measuring Akt phosphorylation, and the signal was detected by AP-conjugated secondary antibodies (NEB, Beverly, Mass.) and CDP-Star chemiluminescence reagent (NEN life science, Boston, Mass.).
Briefly, 293T cells were transiently co-transfected with M-FRB1 2 and F3-ΔPH.Akt expression plasmids. After 24 hours, transfected cells were serum starved for another 24 hours and then treated with AP22783.
On the technique in general: In western blotting, separated proteins are transferred to a membrane and probed.

The test system of experiment [6] is caspase-3 and PARP in Jurkat.iAkt cells. Description: Caspase-3 activation and PARP cleavage by immunoblotting.
Experimental: Next, caspase-3 activation and PARP substrate cleavage were measured by immunoblotting.

Structures are written as SMILES.

As to `COc1cccc(-c2cc(=O)c3ccccc3o2)c1N` [PD98059], in experiment [1], the “endogenous Akt phosphorylation at T308” value is on record as “no discernable effect” and the iAkt phosphorylation entry was “no discernable effect”.

Take `Cn1cc(C2=C(c3cn(CCCSC(=N)N)c4ccccc34)C(=O)NC2=O)c2ccccc21` [R0318220]: the “NF-κB activation by M-Akt plus PKC” value in experiment [2] was “complete inhibition of NF-κB”.

In experiment [3] (2 μM STS with AP22783 400 nM, 6 hours, no serum, without background correction), `O=C(O)COc1ccccc1O` [AP22783] came in with an apoptotic cells of 17%. The “PI3K inhibitor-induced cell death” value in experiment [3] (AP22783 400 nM with wortmannin or LY294002, 2% or 10% FBS, 9 hours) is “almost totally blocked”. Moreover, in experiment [3] (AP22783 400 nM, 2% or 10% FBS, 6 hours), the CH-11-triggered apoptosis result is “rescued cells from CH-11-triggered apoptosis”. Moreover, in experiment [3] (AP22783 400 nM, high FBS), the etoposide-induced cell death result is on record as “reduced etoposide-induced cell death efficiently”. Besides, in experiment [3] (AP22783 400 nM, low FBS), the etoposide-induced cell death result is “lesser, but reproducible level of protection”. Besides, the “STS-induced toxicity (apoptosis)” value in experiment [3] (low-dose STS (0.5 μM) with AP22783 400 nM, 6 hours, no serum) is “fully blocked”. The “Akt kinase activity (GSK3 crosstide phosphorylation)” value in experiment [4] was “associated with GSK3 phosphorylation”. Besides, the “phosphorylation of iAkt at S473 and T308” value in experiment [5] was “greatly stimulated”. Further, in experiment [6] (with AP22783), the “STS-induced caspase-3 activation” value is listed as “blocked”, the “high-dose STS-induced PARP cleavage” value is “reduced” and the “low-dose STS-induced PARP cleavage” value was “blocked”.

For the compound `CN[C@@H]1C[C@H]2O[C@@](C)([C@@H]1OC)n1c3ccccc3c3c4c(c5c6ccccc6n2c5c31)C(=O)NC4` [STS, staurosporine], the apoptotic cells in experiment [3] (2 μM STS, 6 hours, no serum, without AP22783, without background correction) is given as 36%; in experiment [3] (low-dose STS (0.5 μM), 6 hours, no serum, without AP22783), 19.4%. The cell death entry in experiment [3] (STS 0, 0.5 or 2.0 μM, 6 hours, no serum) is listed as “induced cell death in a dose-response manner”. Besides, the procaspase-3 level entry in experiment [6] (STS at high-dose) was “significant reduction of procaspase-3”. For the same compound, the PARP cleavage entry in experiment [6] (STS at low- and high-dose) is recorded as “dramatic PARP cleavage”.
